# According to EP4682146A1, “COMPOSITION INCLUDING NOVEL PYRIDOINDOLE DERIVATIVE COMPOUND AS ACTIVE INGREDIENT FOR PREVENTION OR TREATMENT OF NEURODEGENERATIVE DISEASES” (Neurotarge Co., Ltd., priority 2023, dated 2024):
# Biological target: T1, Tau-Synaptogyrin3 interaction (Homo sapiens, UniProt O43761+P10636)
# T1 construct: expressed in transfected cells
# Assay: Cell-based split luciferase (NanoBit) protein complementary assay for Tau-Synaptogyrin3 interaction in stable cell line HEK293T-TK252-1E2
# Settings: HEK293T-TK252-1E2 cells, 48 hrs compound treatment, L/F value (luciferase activity/fluorescent intensity) compared to DMSO control
# Procedure: Live cell luciferase assay: Live cell luciferase activity was measured using NanoGlo® Live Cell Assay System (Cat# N2012. Promega, WI, USA), according to manufacturer's instruction. All microplate-based measurement was performed with BioTek Synergy H1 (Agilent. CA, USA).
# For producing HEK293T-TK252 stable cell line for screening, BglII-linearized pTK252 was transfected to HEK293T cells. After 24 hrs transfection, the transfected cells were cultured in the culture media containing 1 µg/ml puromycin (10 mM in DMSO, Cat# J61278/ Alfa Aesar. ThermoFisher Korea, Seoul, Korea) for 9 days. Regular media change was performed in every 3 days with fresh puromycin of indicating concentration during the whole selection period. The selected cells were trypsinized and diluted to 5 cells/ml and seeded to 4x 96 well cell culture plates (100 µl/well), and cultured with the cell culture media containing 1 µg/ml puromycin for 11 days. 18 wells that contained only GFP-positive cells were selected for expansion, and cultured with the cell culture media containing 0.1-0.2 µg/ml puromycin for 14 days. 10 clones were discarded during the expansion due to emerging of non-GFP cells, and 8 clones were validated. The selected clone (1E2) was cultured with the cell culture media containing 0.5 µg/ml puromycin for further experiments.
# 3 µmol of 1,728 compounds were purchased from Otava Chemicals MB (Vilniaus, Lithuania), dissolved into 300 µl DMSO (10 mM) and stored at -80°C. 4x10^4 HEK293T-TK252-1E2 cells were seeded with 100 µl of the cell culture media into 96 white well cell culture plates (Cat# 30196. SPL, Seoul, Korea), 48 hrs prior to compound treatment. For 10 µM compound treatment, 10 mM compound stock was diluted to 50 µM with the cell culture media, and 25 µl of the diluted compound was added to the designated wells of the 96 well plates. For dose-response experiments, the amount of compounds for dilution was adjusted to fit the volume indicated above. After 48 hrs compound treatment, the cells were washed once with OptiMEM and live cell luciferase activity, fluorescent intensity and fluorescence area scan was measured.
# 1,728 compounds were treated at 10 µM to HEK293T-TK252-1E2 cells and incubated for 48 hrs. […] Single wash step with culture media without FBS was included before measurement to discard dead cells and to remove FBS that affects luciferase assay. […] Fluorescent intensity was taken for normalization, which is expected to be proportion to the cell number at the measuring point. L/F value which is luciferase activity normalized with fluorescent intensity (L/F = Luciferase activity/ Fluorescent intensity) was calculated for all measurements and compared to L/F value of DMSO controls to calculated the size of inhibitory effect. […] Fluorescence area scan (FA) performed right after luciferase activity and fluorescent intensity measurement, to validate total remaining fluorescent cells in a well as a proxy to the cellular toxicity. FA value was in proportion to WST assay results (data not shown), and average CV of triplicates of all measurements was 0.04.
# 61 compounds were further tested for dose-response profile, based on inhibitory effect that was measured by L/F value (<60%) and FA-based cell viability (>90%) at 10 µM compared to DMSO control. 10 compounds were considered as hit compounds through three times of reproduction.
# T1 sequence (P10636 1-441 isoform P10636-8): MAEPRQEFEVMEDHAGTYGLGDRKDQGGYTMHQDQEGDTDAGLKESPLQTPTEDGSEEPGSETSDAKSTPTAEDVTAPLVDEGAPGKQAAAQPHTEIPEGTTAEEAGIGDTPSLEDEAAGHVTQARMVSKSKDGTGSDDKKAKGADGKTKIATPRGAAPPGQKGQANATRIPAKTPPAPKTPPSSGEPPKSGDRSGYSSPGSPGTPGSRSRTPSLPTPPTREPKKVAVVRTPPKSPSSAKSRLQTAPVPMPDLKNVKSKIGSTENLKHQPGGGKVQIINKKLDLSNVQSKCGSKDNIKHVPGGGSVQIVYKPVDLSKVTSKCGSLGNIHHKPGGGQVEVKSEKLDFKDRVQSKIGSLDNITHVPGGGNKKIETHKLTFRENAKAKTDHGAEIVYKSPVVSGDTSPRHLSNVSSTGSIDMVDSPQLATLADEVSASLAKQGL
# T1 sequence (O43761 whole entry): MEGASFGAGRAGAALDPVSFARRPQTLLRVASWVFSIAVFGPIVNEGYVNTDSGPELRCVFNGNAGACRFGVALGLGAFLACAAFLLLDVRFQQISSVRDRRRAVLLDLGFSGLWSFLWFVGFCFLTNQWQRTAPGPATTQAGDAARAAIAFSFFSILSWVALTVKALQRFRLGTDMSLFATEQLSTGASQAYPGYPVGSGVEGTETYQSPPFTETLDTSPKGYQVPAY
row,IC50 [µM],SMILES
1,< 3,"Cc1ccc(C(=O)N2CCc3[nH]c4ccc(-c5ccc(C)cc5)cc4c3C2)cc1 [Formula 37, p-Tolyl(8-(p-Tolyl)-1,3,4,5-tetrahydro-2H-pyrido[4,3-b]indol-2-yl)methanone]"
2,3 to 12,"Cc1ccc(C(=O)N2CCc3[nH]c4ccc(-c5ccccc5C#N)cc4c3C2)cn1 [Formula 60, 2-(2-(6-Methylnicotinoyl)-2,3,4,5-tetrahydro-1H-pyrido[4,3-b]indol-8-yl)benzonitrile]"
3,3 to 12,"Cc1ccc(C(=O)N2CCc3[nH]c4ccc(-c5ccccc5C#N)cc4c3C2)cc1 [Formula 59, 2-(2-(4-Methylbenzoyl)-2,3,4,5-tetrahydro-1H-pyrido[4,3-b]indol-8-yl)benzonitrile]"
4,3 to 12,Cc1cccc(C(=O)N2CCc3[nH]c4ccc(-c5ccc(C#N)cc5)cc4c3C2)c1 [Formula 53]
5,3 to 12,N#Cc1ccc(-c2ccc3[nH]c4c(c3c2)CN(C(=O)c2cccnc2)CC4)cc1 [Formula 51]
6,3 to 12,"CCn1c2c(c3cc(-c4ccc(C)cc4)ccc31)CN(C(=O)c1ccccc1)CC2 [Formula 45, (5-ethyl-8-(p-tolyl)-1,3,4,5-tetrahydro-2H-pyrido[4,3-b]indol-2-yl)(phenyl)methanone]"
7,3 to 12,"Cc1ccccc1-c1ccc2[nH]c3c(c2c1)CN(C(=O)c1nccs1)CC3 [Formula 25, Thiazol-2-yl(8-(o-tolyl)-1,3,4,5-tetrahydro-2H-pyrido[4,3-b]indol-2-yl)methanone]"
8,3 to 12,"COc1ccc(-c2ccc3[nH]c4c(c3c2)CN(C(=O)c2ccccc2)CC4)cc1 [Formula 62, (8-(4-Methoxyphenyl)-1,3,4,5-tetrahydro-2H-pyrido[4,3-b]indol-2-yl)(phenyl)methanone]"
9,< 3,"Cc1cccc(-c2ccc3[nH]c4c(c3c2)CN(C(=O)c2cccnc2)CC4)c1 [Formula 27, Pyridin-3-yl(8-(m-tolyl)-1,3,4,5-tetrahydro-2H-pyrido[4,3-b]indol-2-yl)methanone]"
10,3 to 12,"O=C(c1cnccn1)N1CCc2[nH]c3ccc(-c4ccccc4)cc3c2C1 [Formula 7, (8-phenyl-1,3,4,5-tetrahydro-2H-pyrido[4,3-b]indol-2-yl)(pyrazin-2-yl)methanone]"
11,12 to 25,"Cc1ccc(-c2ccc3[nH]c4c(c3c2)CN(C(=O)Nc2ccccc2)CC4)cc1 [Formula 75, N-phenyl-8-(p-tolyl)-1,3,4,5-tetrahydro-2H-pyrido[4,3-b]indole-2-carboxamide]"
12,3 to 12,"Cc1ccccc1-c1ccc2[nH]c3c(c2c1)CN(C(=O)c1cccc2c1ccn2C)CC3 [Formula 24, (1-methyl-1H-indol-4-yl)(8-(o-tolyl)-1,3,4,5-tetrahydro-2H-pyrido[4,3-b]indol-2-yl)methanone]"
13,< 3,"Cc1ccc(-c2ccc3[nH]c4c(c3c2)CN(C(=O)c2cccnc2)CC4)cc1 [Formula 29, Pyridin-3-yl(8-(p-tolyl)-1,3,4,5-tetrahydro-2H-pyrido[4,3-b]indol-2-yl)methanone]"
14,3 to 12,"N#Cc1ccccc1-c1ccc2[nH]c3c(c2c1)CN(C(=O)c1ccccc1)CC3 [Formula 61, 2-(2-benzoyl-2,3,4,5-tetrahydro-1H-pyrido[4,3-b]indol-8-yl)benzonitrile]"
15,3 to 12,"COc1cccc(C(=O)N2CCc3[nH]c4ccc(-c5ccccc5)cc4c3C2)c1 [Formula 18, (3-methoxyphenyl)(8-phenyl-1,3,4,5-tetrahydro-2H-pyrido[4,3-b]indol-2-yl)methanone]"
16,3 to 12,"Cc1cncc(C(=O)N2CCc3[nH]c4ccc(-c5ccccc5C)cc4c3C2)c1 [Formula 22, (5-methylpyridin-3-yl)(8-(o-tolyl)-1,3,4,5-tetrahydro-2H-pyrido[4,3-b]indol-2-yl)methanone]"

row,IC50 [µM],SMILES
1,3 to 12,"O=C(N1CCOCC1)N1CCc2[nH]c3ccc(-c4ccccc4)cc3c2C1 [Formula 19, Morpholino(8-phenyl-1,3,4,5-tetrahydro-2H-pyrido[4,3-b]indol-2-yl)methanone]"
2,3 to 12,"CN(C)c1ccc(-c2ccc3[nH]c4c(c3c2)CN(C(=O)c2ccccc2)CC4)cc1 [Formula 73, (8-(4-(Dimethylamino)phenyl)-1,3,4,5-tetrahydro-2H-pyrido[4,3-b]indol-2-yl)(phenyl)methanone]"
3,12 to 25,"O=C(c1ccc(C(F)(F)F)cc1)N1CCc2[nH]c3ccc(-c4ccccc4)cc3c2C1 [Formula 12, (8-phenyl-1,3,4,5-tetrahydro-2H-pyrido[4,3-b]indol-2-yl)(4-(trifluoromethyl)phenyl)methanone]"
4,3 to 12,"Cc1ccc(-c2ccc3c(c2)c2c(n3C)CCN(C(=O)c3ccccc3)C2)cc1 [Formula 43, (5-methyl-8-(p-tolyl)-1,3,4,5-tetrahydro-2H-pyrido[4,3-b]indol-2-yl)(phenyl)methanone]"
5,3 to 12,"COc1ccc(C(=O)N2CCc3[nH]c4ccc(-c5ccc(C)cc5)cc4c3C2)cc1 [Formula 39, (4-methoxyphenyl)(8-(p-tolyl)-1,3,4,5-tetrahydro-2H-pyrido[4,3-b]indol-2-yl)methanone]"
6,< 3,"O=C(c1cccnc1)N1CCc2[nH]c3ccc(-c4ccc(F)cc4)cc3c2C1 [Formula 65, (8-(4-fluorophenyl)-1,3,4,5-tetrahydro-2H-pyrido[4,3-b]indol-2-yl)(pyridin-3-yl)methanone]"
7,3 to 12,"Cc1ccc(-c2ccc3[nH]c4c(c3c2)CN(C(=O)c2ccc(N(C)C)cc2)CC4)cc1 [Formula 69, (4-(Dimethylamino)phenyl)(8-(p-tolyl)-1,3,4,5-tetrahydro-2H-pyrido[4,3-b]indol-2-yl)methanone]"
8,< 3,"Cc1ccc(C(=O)N2CCc3[nH]c4ccc(-c5ccccc5)cc4c3C2)cc1 [Formula 14, (8-phenyl-1,3,4,5-tetrahydro-2H-pyrido[4,3-b]indol-2-yl)(p-tolyl)methanone]"
9,3 to 12,"O=C(c1cccnc1)N1CCc2[nH]c3cc(-c4ccccc4)ccc3c2C1 [Formula 35, (7-phenyl-1,3,4,5-tetrahydro-2H-pyrido[4,3-b]indol-2-yl)(pyridin-3-yl)methanone]"
10,3 to 12,"O=C(c1ccccc1)N1CCc2[nH]c3ccc(-c4ccccc4)cc3c2C1 [Formula 9, Phenyl(8-phenyl-1,3,4,5-tetrahydro-2H-pyrido[4,3-b]indol-2-yl)methanone]"
11,< 3,"O=C(c1ccccc1)N1CCc2[nH]c3ccc(-c4ccc(Cl)cc4)cc3c2C1 [Formula 70, (8-(4-chlorophenyl)-1,3,4,5-tetrahydro-2H-pyrido[4,3-b]indol-2-yl)(phenyl)methanone]"
12,< 3,"Nc1ccc(-c2ccc3[nH]c4c(c3c2)CN(C(=O)c2ccccc2)CC4)cc1 [Formula 72, (8-(4-Aminophenyl)-1,3,4,5-tetrahydro-2H-pyrido[4,3-b]indol-2-yl)(phenyl)methanone]"
13,3 to 12,O=C(c1ccncc1)N1CCc2[nH]c3ccc(-c4ccccc4)cc3c2C1 [Formula 3]
14,3 to 12,"O=C(c1ccccc1)N1CCc2[nH]c3ccc(Nc4ccc(Cl)cc4)cc3c2C1 [Formula 33, (8-((4-chlorophenyl)amino)-1,3,4,5-tetrahydro-2H-pyrido[4,3-b]indol-2-yl)(phenyl)methanone]"
15,3 to 12,"Cc1ccc(C(=O)N2CCc3[nH]c4ccc(-c5cccc(C#N)c5)cc4c3C2)cc1 [Formula 56, 3-(2-(4-Methylbenzoyl)-2,3,4,5-tetrahydro-1H-pyrido[4,3-b]indol-8-yl)benzonitrile]"
